These results are taken from patent US11970454B1, “Ethyl-2[9-2(2-hydroxyquinolin-3-yl)-1,8-dioxo-3,4,9,10-tetrahydroacridine-10-yl]-acetate as an antimicrobial compound” (KING FAISAL UNIVERSITY, priority 2023, dated 2024).

For data set [1], the system named is Staphylococcus aureus. The data set is described as follows: Antimicrobial screening by agar dilution, Staphylococcus aureus. The format is cell-based. Particulars: after 10, 20, 40 and 60 minutes at all dilutions 1:100, 1:200, 1:400, 1:800. The procedure: (§1) The antibacterial properties of the synthesized compound ethyl 2-[9-(2-hydroxyquinolin-3-yl)-1,8-dioxo-3,4,9,10-tetrahydroacridine-10-yl]-acetate were studied by the method of agar dilution. Test solutions of each compound was prepared in concentration of 1% using dimethylformamide as a solvent then they are diluted in physiological solution to obtain the final experimental dilutions 1:100, 1:200, 1:400, 1:800. The effect of these substances are compared with furacillin in a controllable study. The testing microbes used were gram positive bacteria Staphylococcus aureus, gram negative bacteria Pseudomonas aeruginosa and Escherichia coli and Candida albicans fungus. The experiments used for this survey were meat-pentonlu agar (EPA) for cultivation of bacteria and Saburo environment for the fungus. Each experiment used 1 mL of test solution on each plate […]. Two drops of emulsified with microbes feel were added. All experimental samples were taken from the agar after 10, 20, 40, 60 minutes in the environment on the basis of Patrk planted. The bacteria were cultivated at a temperature of 37° C. for 1 day and the mushroom was kept in a thermostat for […] at a temperature of 28° C. Then results were checked.
In general terms: Agar dilution tests growth on a series of plates holding different concentrations.

Data set [2] deals with Escherichia coli. The data set is described as follows: Antimicrobial screening by agar dilution, Escherichia coli. Format: cell-based. Particulars: after 10, 20, 40 and 60 minutes at all dilutions 1:100, 1:200, 1:400, 1:800. The procedure: as §1
The subject of data set [3] is Pseudomonas aeruginosa. The data set is described as follows: Antimicrobial screening by agar dilution, Pseudomonas aeruginosa. The format is cell-based. Particulars: after 10, 20, 40 and 60 minutes at all dilutions 1:100, 1:200, 1:400, 1:800. As for the experimental part: as §1
The test system of data set [4] is Candida albicans. The data set is described as follows: Antimicrobial (antifungal) screening by agar dilution, Candida albicans. The format is cell-based. Particulars: after 10, 20, 40 and 60 minutes at all dilutions 1:100, 1:200, 1:400, 1:800. As for the experimental part:
as §1

With `CCOC(=O)CN1C2=C(C(=O)CCC2)C(c2cc3ccccc3nc2O)C2=C1CCCC2=O` [ethyl 2-[9-(2-hydroxyquinolin-3-yl)-1,8-dioxo-3,4,9,10-tetrahydroacridine-10-yl]-acetate], the melting point (usually the temperature of the solid-liquid transition) turned out to be 228 °C. In addition, the inhibition activity result in data set [1] is given as “highest inhibition activity”. In addition, in data set [2], the inhibition activity result was “highest inhibition activity”. The inhibition activity entry in data set [3] is reported as “highest inhibition activity”. Also, the inhibition activity result in data set [4] was “highest inhibition activity”.
